From US20250091982A1, “Pharmaceutical Composition, Methods of Use Thereof for Treating Cocaine Addiction, and Novel Use of Hausp K444R Point Mutant Mouse” (PHARWAR BIOTECHNOLOGY, INC. PTE. LTD., priority 2022, published 2025)

What was measured:
[1] = system: locomotion activity induced by cocaine; assay: Locomotion activity (open field test) of cocaine induced mice; assay type: in vivo; conditions: compound 10 mg/kg 10 mins before cocaine 25 mg/kg i.p.; FIGS. 12A to 12C
From the text: 8 mice from Preparation Example 2 were randomly chosen to conduct Locomotion Activity I. The open fields using white acrylic chambers measured 50 cm (length)×50 cm (width)×38 cm (height) were made from white high density and non-porous plastics. Once the Video Tracking software (ANY-maze, Stoelting Co, IL, USA) was opened, the cursor was moved to the “Single-Subject Tracking” option located under the “Data Acquisition” tab and single-clicked to open this option. The software package used in this protocol allows the tracking of up to 6 individual mice at one time. The mice were brought to open fields to acclimate to the procedure room for 30 minutes (min) prior to starting the test. The tracking plot of randomly chosen 6 mice was recorded and analyzed by ANY-maze software.
(§1) Conditioned place preference (CPP) is a classical conditioning paradigm used in behavioral neuroscience to study the rewarding and aversive properties of drugs or other stimuli. It involves associating a particular environment or location with the experience of a rewarding or aversive stimulus, such as drugs, food, or electric shock. In CPP experiment, mice were first trained to associate one compartment of a box and then, they were placed in the neutral compartment and allowed to freely explore both compartments, and animals' preference for one compartment over the other was measured. After vehicle/Compound 2-2 (10 mg/kg)/Compound 2-3 (10 mg/kg)/Compound 3-3 (10 mg/kg) treatment for 10 mins, the well-trained mice were administrated with cocaine (25 mg/kg, i.p.) for 30 mins. The content of the vehicle is 0.5% DMSO, 25% PEG-300, 4% Tween-80, and 70.5% saline. The locomotion activity experiment was the same as the method of open field test described in Experiment 2.

[2] = system: cocaine conditioned place preference; assay: Conditioned place preference (CPP) test induced by cocaine; assay type: in vivo, mice; conditions: compound 10 mg/kg 10 mins before cocaine 25 mg/kg i.p.; FIG. 12D
From the text: as §1

[3] = system: lever press induced by cocaine; assay: Lever press test (cocaine self-administration); assay type: in vivo, mice; conditions: 10 mg/kg intraperitoneally 10 min prior to cocaine self-administration; for cumulative cocaine reinforcements: FIG. 13G; for latency to first response in mice treated with cocaine: FIG. 13H; for lever press frequencies induced by cocaine treatment: FIGS. 13A to 13F
Experimental: Mice were anesthetized with isoflurane (induction and maintenance at 4%-5%) for surgical implantation of a jugular vein catheter connected to a head-mounted entry port. Briefly, the right jugular vein was exposed, and the catheter tubing was inserted and secured to the vein. The catheter was passed under the skin to an incision on the head, and the port was secured to the skull with dental cement anchored by screws. Mice were given buprenorphine (0.05-0.10 mg/kg, intraperitoneal.) for analgesia and allowed to recover for 7-10 days before beginning self-administration. Catheter patency was maintained by daily infusion of 100 μl heparin (120 U/μl) through the catheter and treated with Cefazolin, 200 mg/kg, subcutaneously, to prevent bacterial infections.
The lever press test was done in extra wide mouse operant chambers with a modified top (Med Associates, VT, USA). The chamber contained a retractable lever, a food pellet receptacle connected to a pellet dispenser, with a stimulus light above the pellet receptacle, and contained a house light. Cocaine was delivered by a syringe pump located outside the chamber, and the drug delivery tubing was connected to the mice through a swivel (Instech, Plymouth Meeting, PA, USA) and the swivel arm connected on top of the chamber to allow free movement of the mice during self-administration. All the sessions were remotely operated and recorded by MED-PC V software (Med Associates, VT, USA). Mice were pre-trained with food through pressing the levers and were food-restricted during the study. After training, mice were provided ad libitum access to water and food.
Self-administration sessions took place once daily during the light-dark cycle for 14 consecutive days. Before starting the study, mice were allowed to acclimate to the housing for approximately 3 days. The availability of cocaine reward was indicated by illumination of the house light and pressing levers. […] Each infusion was paired with a cue (1 s illumination of the stimulus green light) followed by a 10-second time-out signaled by turning off the house light. […] Each chamber was operated under a 3-hour session, or until mice received 100 infusions (20 mg/kg) of cocaine (to prevent cocaine overdose). No treatment groups were implanted with a catheter and placed in the operant chambers with identical cues but not connected to the syringe pump and received no reward for pressing the active levers. Vehicle or inhibitor (Compound 2-2, Compound 2-3, or Compound 3-3) with a dosage of 10 mg/kg was injected intraperitoneally for 10 min prior to cocaine self-administration. The content of the vehicle is 0.5% DMSO, 25% PEG-300, 4% Tween-80, and 70.5% saline. Mice met criteria for acquisition of self-administration when they: (1) self-administered at least 30 infusions in a session; (2) >85% of responses were on the active […]; and (3) had no more than 20% variation in number of infusions between sessions. The lever press frequency and number within 3 hours indicate the cocaine addiction symptom.

SIAH1 = target: T1, SIAH1 (Homo sapiens, UniProt Q8IUQ4); assay: E3-ligase auto ubiquitination assay (K48-linked polyubiquitination of HAUSP mediated by SIAH1); assay type: biochemical; conditions: 37° C., 1 hour, Western blot with Ub-K48 antibody, compared to vehicle; FIG. 14A, 14B
T1 sequence (Q8IUQ4 1-282): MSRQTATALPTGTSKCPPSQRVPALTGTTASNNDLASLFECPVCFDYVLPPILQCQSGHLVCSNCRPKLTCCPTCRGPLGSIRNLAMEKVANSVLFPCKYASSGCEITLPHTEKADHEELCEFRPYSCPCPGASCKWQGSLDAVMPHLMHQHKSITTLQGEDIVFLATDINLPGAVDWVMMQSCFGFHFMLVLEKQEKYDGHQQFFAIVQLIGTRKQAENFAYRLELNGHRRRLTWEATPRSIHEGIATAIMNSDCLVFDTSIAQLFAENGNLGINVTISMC
Experimental: SIAH1 mediates the K48-linked polyubiquitination of HAUSP. Therefore, for the ubiquitination assay, SIAH1 was incubated in the solution (0.25 mg/1 ml, total 100 μg) containing 20 mM Tris-HCl buffer (pH 8.0), 100 mM NaCl, 1 mM DTT and 40% glycerol and HAUSP (50 μg) was in 50 mM HEPES pH 7.5, 100 mM NaCl, 1 mM TCEP (tris (2-carboxyethyl) phosphine) buffer. […] The E3-ligase auto ubiquitination assay was performed by E3 Ligase Auto-Ubiquitilylation Assay Kit (Abcam, ab139469, UK).

[4] = system: heart rate and blood pressure induced by cocaine; assay: Heart rate and blood pressure of cocaine induced mice; assay type: in vivo, C57BL/6JNar1 mice; conditions: cocaine 25 mg/kg/day i.p. three months, then compound 25 mg/kg/day three months; FIG. 15
Experimental: (§2) C57BL/6JNar1 mice of 6-months age were used in this Experiment. This Experiment included four groups: the normal control group (saline group), the cocaine+saline group, the cocaine+Compound 2-2 group, and the cocaine+Compound 3-3 group. There were 7 mice in the cocaine+Compound 2-2 group and 6 mice each in the rest of the groups. The normal control group received no experimental treatment. […] Heart rate, systolic blood pressure and mean blood pressure of all four groups were measured with a device (MK-2000ST, NP-NIBP Monitor for Mice & Rats, Muromachi, Japan) and the results thereof were shown in FIG. 15. Moreover, the Fr structure of all four groups was measured according to the method of Experiment 7 and the results thereof were shown in FIG. 16 and FIGS. 17A and 17B.

[5] = system: Fasciculus retroflexus (Fr) structure; assay: Fr structure of cocaine induced mice after treatment; assay type: in vivo, C57BL/6JNar1 mice; conditions: cocaine 25 mg/kg/day i.p. three months, then compound 25 mg/kg/day three months; for length of Fr diminished by cocaine treatment: FIG. 16, 17A; for volume of Fr diminished by cocaine treatment: FIG. 16, 17B
Experimental: as §2

[6] = system: HAUSP levels in SH-SY5Y cells; assay: Western blot of HAUSP in cocaine-treated SH-SY5Y cells; conditions: cocaine 200 μM with inhibitor, 24 hr; for HAUSP levels decreased by cocaine in SH-SY5Y cells (western blot): FIG. 14C; for relative protein expression ratios of HAUSP normalized with β-actin: quantified with ImageJ, FIG. 14D
[7] = system: Fasciculus retroflexus (Fr) structure; assay: Mouse brain analysis: Fr structure after cocaine treatment; conditions: wild-type mice, cocaine 25 mg/kg/day for three months, compared to control wild-type mice
Experimental: Cocaine treated mice were C57BL/6j mice treated with cocaine at 10 a.m. with a dosage of 25 mg/kg/day for three months while the control mice (Hausp^WT) and Hausp^K444R mice were treated with saline. All mice were housed under conditions of controlled humidity (55±10%) and temperature (22±2° C.), with a reversed light cycle in this experiment.
After the above treatments, all organs were obtained after mouse heart perfusion by saline, and fixed by 4% paraformaldehyde solution for 24 h for H&E, LFB, Silver, Masson's trichrome staining and immunohistochemistry (IHC). Fresh tissues were immediately homogenized in T-PER™ by tissue homogenizer (HT mini homogenizer, OPS Diagnostics LLC, USA) for Western blot analysis.
Mouse brains were processed following SHIELD processing protocol according to Park, Y. G. et al. 2019. Mice were perfused with ice-cold PBS and then with the SHIELD perfusion solution (ice-cold 1× PBS containing 4% (w/v) PFA and GE38 (polyglycerol 3-polyglycidyl ether) supernatant). Collected brains were incubated in the same perfusion solution at 4° C. for two days. […] Images were reconstructed to a multi-channel-z stack using Imaris file converter, and the regions of the whole brain, habenula region were masked and quantified using the surface function in Imaris software version 9.5.

Structure (SMILES)	increased locomotion activity or increased distance traveled induced by cocaine treatment [1]	time spent in cocaine paired compartments (CPP test) [2]	cumulative cocaine reinforcements [3]	latency to first response in mice treated with cocaine [3]	lever press frequencies induced by cocaine treatment [3]	inhibition of K48-linked polyubiquitination of HAUSP mediated by SIAH1 (SIAH1)	blood pressure induced by cocaine [4]	heart rate induced by cocaine [4]	length of Fr diminished by cocaine treatment [5]	volume of Fr diminished by cocaine treatment [5]	HAUSP levels decreased by cocaine in SH-SY5Y cells (western blot) [6]	relative protein expression ratios of HAUSP normalized with β-actin [6]	diameter of Fr ([7]; FIG. 10D)	length of Fr ([7]; FIG. 10E)
COCCNC(=O)c1ccc(Cl)cc1NC(=O)c1ccccc1C [Compound 2-2, 4-Chloro-N-(2-methoxyethyl)-2-(2-methylbenzamido) benzamide]	decreased	decreased	decreased	increased	decreased	can inhibit	decreased	decreased	partially rescued	partially rescued	can restore	can restore	–	–
COCCNC(=O)c1ccccc1NC(=O)c1c(C)cc(C)cc1C [Compound 3-3, N-(2-((2-Methoxyethyl)carbamoyl)phenyl)-2,4,6-trimethylbenzamide]	decreased	decreased	decreased	increased	decreased	can inhibit	decreased	decreased	partially rescued	partially rescued	can restore	can restore	–	–
COC(=O)[C@H]1[C@@H](OC(=O)c2ccccc2)C[C@@H]2CC[C@H]1N2C [cocaine]	–	–	–	–	–	–	–	–	–	–	–	–	decreased	decreased
